# Measured values taken from US20260041640A1 (INCYCLIX BIO, LLC, priority 2023, published 2026).
# Assay: Organic solubility of INX-315 by visual inspection
# Format: physicochemical
# Design: key to Soluble at 4 wt % / Soluble at 2 wt % / Soluble at 1 wt % / Soluble at 0.5 wt % / Soluble at 0.4 wt % / Soluble at 0.25 wt %: ✓, soluble; X, insoluble
smiles,measurement,setting,value
NS(=O)(=O)c1ccc(Nc2ncc3cc4n(c3n2)C2(CCCCC2)C(=O)NN4)cc1 [INX-315],Soluble at 0.25 wt %,1:9 DMSO:H2O,X
same,Soluble at 0.4 wt %,1:9 DMSO:H2O,X
same,Soluble at 0.5 wt %,1:9 DMSO:H2O,X
same,Soluble at 1 wt %,1:9 DMSO:H2O,X
same,Soluble at 2 wt %,1:9 DMSO:H2O,X
same,Soluble at 4 wt %,1:9 DMSO:H2O,X
same,Soluble at 0.25 wt %,3:1 DCM:MeOH,X
same,Soluble at 0.4 wt %,3:1 DCM:MeOH,X
same,Soluble at 0.5 wt %,3:1 DCM:MeOH,X
same,Soluble at 1 wt %,3:1 DCM:MeOH,X
same,Soluble at 2 wt %,3:1 DCM:MeOH,X
same,Soluble at 4 wt %,3:1 DCM:MeOH,X
same,Soluble at 0.25 wt %,4:1 ACN:H2O,X
same,Soluble at 0.4 wt %,4:1 ACN:H2O,X
same,Soluble at 0.5 wt %,4:1 ACN:H2O,X
same,Soluble at 1 wt %,4:1 ACN:H2O,X
same,Soluble at 2 wt %,4:1 ACN:H2O,X
same,Soluble at 4 wt %,4:1 ACN:H2O,X
same,Soluble at 0.25 wt %,4:1 THF:H2O,✓
same,Soluble at 0.4 wt %,4:1 THF:H2O,✓
same,Soluble at 0.5 wt %,4:1 THF:H2O,✓
same,Soluble at 1 wt %,4:1 THF:H2O,✓
same,Soluble at 2 wt %,4:1 THF:H2O,✓
same,Soluble at 4 wt %,4:1 THF:H2O,✓
same,Soluble at 0.25 wt %,5:1 DCM:H2O,X
same,Soluble at 0.4 wt %,5:1 DCM:H2O,X
same,Soluble at 0.5 wt %,5:1 DCM:H2O,X
same,Soluble at 1 wt %,5:1 DCM:H2O,X
same,Soluble at 2 wt %,5:1 DCM:H2O,X
same,Soluble at 4 wt %,5:1 DCM:H2O,X
same,Soluble at 0.25 wt %,8:2 Acetone:H2O,✓
same,Soluble at 0.4 wt %,8:2 Acetone:H2O,✓
same,Soluble at 0.5 wt %,8:2 Acetone:H2O,X
same,Soluble at 1 wt %,8:2 Acetone:H2O,X
same,Soluble at 2 wt %,8:2 Acetone:H2O,X
same,Soluble at 4 wt %,8:2 Acetone:H2O,X
same,Organic solubility (soluble up to),9:1 ACN:H2O,up to 0.5 wt %
same,Soluble at 0.25 wt %,9:1 ACN:H2O,✓
same,Soluble at 0.4 wt %,9:1 ACN:H2O,✓
same,Soluble at 0.5 wt %,9:1 ACN:H2O,✓
same,Soluble at 1 wt %,9:1 ACN:H2O,X
same,Soluble at 2 wt %,9:1 ACN:H2O,X
same,Soluble at 4 wt %,9:1 ACN:H2O,X
same,Soluble at 0.25 wt %,9:1 Acetone:H2O,✓
same,Soluble at 0.4 wt %,9:1 Acetone:H2O,✓
same,Soluble at 0.5 wt %,9:1 Acetone:H2O,X
same,Soluble at 1 wt %,9:1 Acetone:H2O,X
same,Soluble at 2 wt %,9:1 Acetone:H2O,X
same,Soluble at 4 wt %,9:1 Acetone:H2O,X
same,Organic solubility (soluble up to),Acetone,up to 0.5 wt %
same,Soluble at 0.25 wt %,Acetone,✓
same,Soluble at 0.4 wt %,Acetone,✓
same,Soluble at 0.5 wt %,Acetone,✓
same,Soluble at 1 wt %,Acetone,X
same,Soluble at 2 wt %,Acetone,X
same,Soluble at 4 wt %,Acetone,X
same,Soluble at 0.25 wt %,Methanol,✓
same,Soluble at 0.4 wt %,Methanol,X
same,Soluble at 0.5 wt %,Methanol,X
same,Soluble at 1 wt %,Methanol,X
same,Soluble at 2 wt %,Methanol,X
same,Soluble at 4 wt %,Methanol,X
